From patent publication US9241923B2, “Methods for promoting neuronal development and/or health” (Mead Johnson Nutrition Company, priority 2013, dated 2016)

System: human adipose derived stem cells (hADSCs)
Experiment: neurogenesis / neuronal differentiation of hADSCs judged by neuronal morphology under phase contrast microscopy
Assay type: cell-based
Description: hADSCs were purchased from Invitrogen, also known as Life Technologies, of Carlsbad, Calif., U.S.A., and were cultured as near confluent monolayers in 100 mm culture plates within a maintenance media consisting of Complete MesenPro RS medium with growth supplement and L-glutamine obtained from Invitrogen®. The process of culturing, passage, and seeding the hADSCs is described below.
The subculture of hADSCs was performed when cell culture reached confluence. To passage hADSCs, the following procedure is used: i) aspirate the Complete MesenPRO RS medium from the cells; ii) rinse the surface area of the cell layer with Dulbecco's phosphate buffered saline (DBPS) buffer by adding the DPBS to the side of the vessel opposite the attached cell layer and rocking the vessel back and forth several times; iii) remove the DPBS by aspiration and discard; iv) detach the cells by adding a sufficient volume of pre-warmed trypsin-EDTA solution without phenol red to cover the cell layer; v) incubate at 37° C. for approximately 7 minutes; vi) observe the cells under a microscope to determine if additional incubation is needed; vii) add 3 mL of the maintenance media to the plate, mix the cell suspension, add the suspension to a 15 mL centrifuge tube and centrifuge at 210 g for 5 minutes; viii) determine the total number of cells and percent viability using a hemacytometer; ix) add Complete MesenPRO RS medium to each vessel so that the final culture volume is 0.2 mL-0.5 mL per cm^2; x) seed the cells by adding the appropriate volume of cells to each vessel and incubate at 37° C., 5% CO2 and 90% humidity; and xi) three or four days after seeding, completely remove the medium and replace with an equal volume of Complete MesenPRO RS medium.
Before seeding the passaged hADSCs on fresh culture plates, the surfaces of the culture ware are washed with sterile DPBS solution three times, followed by multiple rinses with sterile water. The first layer of coating is poly-L-ornithine. The coating is prepared by adding about 15 to about 20 µg/mL of poly-L-ornithine and incubating at 37° C. for one hour. The plate is washed three times with DPBS, 15 minutes per wash. The second layer of coating is bovine plasma fibronectin. The fibronectin is diluted in DPBS from stock to 1:1000 and 500 μL is added to each well. The plate is left at room temperature for one hour. One final wash with 500 μL per well of DPBS is performed and the plate is used immediately.
The cells were then subjected to removal and reseeded at a density of 2×10^4 cells/ml (1×10^4 cells/well) onto 24-well culture plates that contained a poly-L-ornithine and bovine plasma fibronectin coating.
Three days after seeding and priming; the culture medium was changed into neuronal differentiation medium. […]

Structure (SMILES)	neuronal morphology of hADSCs (DHA at 20 μM (positive control), vs negative control, FIG. 2B)	neurite outgrowth compared with DHA (ALA 5 μg/ml vs DHA 20 μM, FIG. 2C vs FIG. 2B)	neurogenesis (neuronal morphology displayed by the hADSCs) (ALA at 5 μg/ml, phase contrast microscopy at 3 hours and 24 hours, vs negative control (no treatment), FIG. 2C)	cell death (cellular toxicity) as compared to DHA (wells treated with ALA 5 μg/ml vs DHA 20 μM, hADSCs)
CC/C=C\C/C=C\C/C=C\C/C=C\C/C=C\C/C=C\CCC(=O)O [DHA, docosahexanoic acid, reference compound]	enhanced neuronal morphology of hADSCs			
O=C(O)CCCCC1CCSS1 (stereo not drawn) [ALA, Alpha-lipoic acid]		robust ability to promote neurogenesis in terms of neurite outgrowth	strong effect to enhance neurogenesis	less cell death overall
